Test results reported in article PMC10721329, “Quisinostat is a brain-penetrant radiosensitizer in glioblastoma” (JCI Insight, 2023).
Values joined by “and” are separate entries in the source; they are usually repeats but may differ in a detail not shown here. Identical values can stand only once.

Tests used:
[1] = Stability in human brain homogenate at 37°C; format: in vitro ADME; conditions: for %stability in human brain homogenate, mean / stability in human brain homogenate, [QST], % of control: 37 C; for stability in human brain homogenate, [QST], % of control: single data points
Description: (§1) Hydroxamic acid–based compounds have been reported to display poor stability and high plasma clearance due to the presence of arylesterases and carboxylesterases in rodent blood ([34]). Therefore, we measured the stability of QST in mouse plasma and brain to determine whether drug degradation occurred during our sample preparations and equilibrium dialyses for the determination of unbound drug level (performed at 37°C). […] QST degradation was also observed in mouse brain homogenate (Figure 6B). However, perfusion of mice before brain collection prevented rapid drug degradation in the brain matrix. […] Degradation of QST can also be constrained if plasma and brain samples are processed at 4°C (Supplemental Figure 4A). All subsequent sample preparations were therefore performed on ice-cold baths to avoid degradation of QST in our PK analyses. […] The observed stability is probably due to the absence of esterases in human matrices, which are responsible for degradation of QST ([34]). Because we employed QST in several in vitro studies (Figures 1–4), the stability of the molecule was also tested in the cell media used to culture GSCs (neurobasal medium; see Methods).
(§2) Stability Study in Mouse Plasma, Mouse Brain, Human Plasma, Human Brain, and Neural […]
(§3) The stability of QST was determined in BALB/c mouse plasma, male nude athymic perfused and nonperfused mouse brain homogenate (1:9 w/v of PBS; pH 7.4), human brain (obtained from VRL Eurofins) homogenate (1:4 w/v of PBS; pH 7.4), pooled human plasma (Innovative Research), and neurobasal media. QST stock solutions (1 mM) were prepared in acetonitrile, subsequently diluted in a 40% methanol mixture, and added t o the matrices to make final concentrations of 100 nM or 10 nM. Then 50 or 30 µL of either plasma or brain homogenate containing QST were aliquoted into 1.5-mL microcentrifuge tubes (Eppendorf) and were incubated at either 4 °C or 37 °C for 0, 2, 4, 6, 12, or 24 hours (n = 3 at each time point). […]
(§4) Plasma and brain […]
(§5) homogenate samples were stored at −80 °C until LC-MS/MS analysis. […]

[2] = Stability in neurobasal cell culture medium at 37°C; format: in vitro ADME; conditions: for %stability: neurobasal cell media, 37C
Description: as §1, §2, §3, §4, §5

[3] = test system: orthotopic GB126 tumors; assay: End-stage immunoblot of orthotopic GB126 tumors (H3K9/14ac, H3K27ac); format: in vivo, athymic nude mice; conditions: endpoint PDX tumors, individual mice
Description: All mice included in the survival study were processed for end-point PK and PD analyses once moribund. Plasma, tumor, and contralateral brain tissues were harvested 3 hours after dosing with 10 mg/kg QST, allowing for direct comparison of long-term treatment with the PK-PD data collected from acute (1-week) treatment with QST or combination therapy (Figure 8A). […] There were no significant differences in total or unbound drug concentrations in tumor or brain tissue between the monotherapy or combination therapy cohorts (Figure 8, E and F). Immunoblot analysis of dissected tumor samples confirmed that QST induced substantial histone H3 hyperacetylation in brain tumors, compared with untreated animals, consistent with an in vivo on-target effect (Figure 9, A and B). […]
4). Protein concentrations from whole-cell extracts were determined using the Bradford Protein Assay (ThermoFisher Scientific). Equal amounts of protein (10-40 μg/lane) were loaded onto 10% or 12.5% sodium dodecyl sulfate–polyacrylamide gel electrophoresis gels and transferred to a polyvinylidene fluoride membrane (Millipore-Sigma).
Cellular protein from frozen tissue of non–tumor-bearing mouse brains, tumor-bearing mouse brains, and flank tumors were homogenized in a prechilled glass tissue grinder (VWR) with RIPA lysis buffer containing protease and phosphatase inhibitors (ThermoFisher Scientific), with 500 uL of RIPA buffer for 10 mg of tissue. Once homogenized, the tissue lysates were kept on ice for 30 minutes and vortexed every 10 minutes. The samples were then centrifuged at 15,000 rpm for 10 minutes at 4 °C to collect the protein lysates.
Membranes were blocked with 5% nonfat milk for 1 hour at room temperature and incubated overnight with primary antibody at 4 °C. Primary antibodies used were rabbit anti-p21 […]
Signaling Technologies, 9677), mouse anti-Histone H3 (1:1000, Cell Signaling 14269), mouse

Cn1cc(CNCC2CCN(c3ncc(C(=O)NO)cn3)CC2)c2ccccc21 [QST, quisinostat]
%stability in human brain homogenate, mean ([1]; 10 nM, 0 hrs): 100 % of control | stability in human brain homogenate, [QST], % of control ([1]; 10 nM, 0 hrs): 101.7 % of control and 98.5 % of control and 98.3 % of control | %stability in human brain homogenate, mean ([1]; 10 nM, 2 hrs): 90.6 % of control | stability in human brain homogenate, [QST], % of control ([1]; 10 nM, 2 hrs): 87.5 % of control and 89.1 % of control and 95.1 % of control | %stability in human brain homogenate, mean ([1]; 10 nM, 6 hrs): 94.8 % of control | stability in human brain homogenate, [QST], % of control ([1]; 10 nM, 6 hrs): 95.6 % of control and 93.7 % of control and 94.9 % of control | %stability in human brain homogenate, mean ([1]; 10 nM, 24 hrs): 82.9 % of control | stability in human brain homogenate, [QST], % of control ([1]; 10 nM, 24 hrs): 83.1 % of control and 81 % of control and 84.6 % of control | %stability in human brain homogenate, mean ([1]; 100 nM, 0 hrs): 100 % of control | stability in human brain homogenate, [QST], % of control ([1]; 100 nM, 0 hrs): 98.8 % of control and 102.5 % of control and 98.7 % of control | %stability in human brain homogenate, mean ([1]; 100 nM, 2 hrs): 89.0 % of control | stability in human brain homogenate, [QST], % of control ([1]; 100 nM, 2 hrs): 90.7 % of control and 89.5 % of control and 86.8 % of control | %stability in human brain homogenate, mean ([1]; 100 nM, 6 hrs): 92.7 % of control | stability in human brain homogenate, [QST], % of control ([1]; 100 nM, 6 hrs): 93.9 % of control and 90.6 % of control and 93.7 % of control | %stability in human brain homogenate, mean ([1]; 100 nM, 24 hrs): 84.4 % of control | stability in human brain homogenate, [QST], % of control ([1]; 100 nM, 24 hrs): 81.6 % of control and 84.2 % of control and 87.3 % of control | stability in human brain homogenate ([1]; 37°C): completely stable | %stability ([2]; 10 nM, time 0 hrs (15 minutes used as zero hour time point)): 101.6% and 100.2% and 98.2% | %stability ([2]; 10 nM, time 0 hrs (15 minutes used as zero hour time point), mean): 100.0% | %stability ([2]; 10 nM, time 2 hrs): 102.7% and 80.7% and 97.1% | %stability ([2]; 10 nM, time 2 hrs, mean): 93.5% | %stability ([2]; 10 nM, time 5 hrs): 88.0% and 90.7% and 90.1% | %stability ([2]; 10 nM, time 5 hrs, mean): 89.6% | %stability ([2]; 10 nM, time 24 hrs): 69.7% and 66.1% | %stability ([2]; 10 nM, time 24 hrs, mean): 68.5% | %stability ([2]; 100 nM, time 0 hrs (15 minutes used as zero hour time point)): 85.1% and 110.5% and 104.4% | %stability ([2]; 100 nM, time 0 hrs (15 minutes used as zero hour time point), mean): 100.0% | %stability ([2]; 100 nM, time 2 hrs): 109.4% and 82.9% and 110.7% | %stability ([2]; 100 nM, time 2 hrs, mean): 101.0% | %stability ([2]; 100 nM, time 5 hrs): 95.9% and 77.8% and 80.7% | %stability ([2]; 100 nM, time 5 hrs, mean): 84.8% | %stability ([2]; 100 nM, time 24 hrs): 73.1% and 67.2% and 68.6% | %stability ([2]; 100 nM, time 24 hrs, mean): 69.6% | QST intact in cell media ([2]; neurobasal medium, 24-hour incubation, 37°C): approximately 70% | H3K9/14ac levels normalized to B-actin ([3]; QST + IR): 7.331 fold change and 7.39 fold change and 6.951 fold change | H3K27ac levels normalized to B-actin ([3]; QST + IR): 1.842 fold change and 4.36 fold change and 3.819 fold change | H3K9/14ac levels normalized to B-actin ([3]; QST): 5.4 fold change and 6.4803 fold change and 5.818 fold change | H3K27ac levels normalized to B-actin ([3]; QST): 4.65 fold change and 3.97 fold change and 2.306 fold change
